Data published in publication PMC12381781, “Structural and functional insights into the selective inhibition of mutant tau aggregation by purpurin and oleocanthal in frontotemporal dementia” (Protein Science : A Publication of the Protein Society, 2025).
“Also recorded” adds a separate entry of the source.

Key:
R2R3 (V287I) tau peptide = R2R3 (V287I) tau peptide (Homo sapiens, UniProt P10636, V604I); experiment: ThT aggregation assay of monomeric R2R3 (V287I) peptide; assay type: biochemical; conditions: for ThT-stained aggregates, confocal imaging: R2R3 V287I, compound 10 μM, end of ThT assay
Sequence of R2R3 (V287I) tau peptide (P10636 592-653 V604I): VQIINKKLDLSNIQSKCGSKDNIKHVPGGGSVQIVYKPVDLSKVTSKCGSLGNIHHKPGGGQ
Experimental: The aggregation kinetics of tau peptides were monitored using a ThT assay. A 40 μL reaction mixture containing 15 μM ThT (Sigma‐Aldrich, Cat. # T3516‐5G) and 50 μM peptide in the absence (control) or presence of 0.1 μM, 1 μM, and 10 μM PUR or OLC was prepared on ice in aggregation buffer (20 mM Tris [pH 7.4], 100 mM NaCl, 1 mM ethylenediaminetetraacetic acid [EDTA]) containing 5 μM heparin (Sigma‐Aldrich, Cat. #H4784). dithiothreitol (DTT) was excluded to avoid its differential effects on the aggregation kinetics of tau peptides containing Cys291 or Cys322 and to prevent peroxide generation by redox‐active compounds like PUR, which can lead to oxidative artifacts and false‐positive inhibition signals, as reported in our previous study (Annadurai, Malina, Salmona, et al., [2022]). This mixture was then dispensed into a clear‐bottom, black 384‐well ViewPlate (Revvity, Waltham, MA, United States; Part # 6007460) and sealed with a TopSealA‐PLUS (Revvity) to prevent evaporation.
Aggregation was monitored using EnSpire Multimode Plate Reader (Revvity) at 37°C with constant agitation (1000 rpm). To minimize condensation, the upper heater temperature was set to 2°C higher than the lower heater temperature. ThT fluorescence (ThT—λ ex: 460–490 nm and λem: 500–550 nm) was recorded every 5–10 min for 48 h.
ThT fluorescence curves were fitted to a sigmoidal function in GraphPad Prism (version 10, San Diego, CA, USA) using the following equation:
Y=Top/1+expV50–X/Slope , where Y is the ThT fluorescence intensity, X is time (h), Top is the maximum fluorescence intensity, V50 is the time to reach 50% of Top, and Slope describes the steepness of the aggregation transition. Baseline fluorescence at the start of the measurements was relatively low across samples and was not separately fitted. In samples showing early increases in fluorescence, the aggregation trajectory was modeled directly without introducing an independent baseline parameter.
The V50 value obtained from each replicate was used as the aggregation t 1/2 for statistical analysis.
To evaluate the effect of compounds on the extent of aggregation, the AUC was calculated for each replicate ThT fluorescence curve using GraphPad Prism. AUC values were then normalized to the mean AUC of the untreated control group and expressed as “aggregation (% of control),” serving as an indirect and comparative measure of fibril formation.
Figure S11. Confocal imaging of ThT-stained aggregates formed in the presence of PUR and OLC (corresponding to Figure 3). […] ThT fluorescence was acquired using a Yokogawa Cell Voyager 7000S high-content imaging system equipped with a 20× objective (Ex: 460–490 nm, Em: 500–550 nm) and analyzed with Signals Image Artist (Revvity). […]

[1] = test system: Tau RD P301S FRET Biosensor cells; experiment: Biosensor cell seeding assay, aggregation products formed with compound (co-aggregation); assay type: cell-based; conditions: 100 nM transduced, 48 h
Experimental: Tau peptides were aggregated with or without PUR or OLC in a 7.4 pH aggregation buffer without ThT. After 48 h, the contents of each well were pooled to a final total volume of 120 μL. The concentration of the pooled Aggregation Reaction Products was measured using the Pierce™ BCA Protein Assay Kit (Thermo Fisher Scientific Inc., Cat. # 23225). The reaction products were standardized for cell transduction to a final concentration of 100 nM for both control and drug‐treated samples. The pooled aggregation mixture was sonicated using a Branson Ultrasonic™ Sonifier Cup Horns (Marshall Scientific, Hampton, NH, USA) at 30% amplitude (15 s ON and 15 s OFF for 1 min) to fragment larger aggregates into smaller ones, facilitating consistent transduction.
Tau RD P301S FRET Biosensor cells were plated at 5 × 10^3 cells per well in PhenoPlate 384‐well, black, optically clear flat‐bottom plates (Revvity; Part # 6057302) pre‐coated with 50 μg/mL Poly‐ᴅ‐Lysine (Sigma‐Aldrich, Cat. # P6407). After plating, cells were incubated for 30 min at room temperature to promote better cell spreading before returning the plates to the incubator.
The next day, cells were transduced with 100 nM of aggregation mixture, which were either: (i) prepared in the absence (control) or presence of 10 μM PUR or OLC for co‐aggregation studies (Figure 5), or (ii) prepared exclusively in the absence of compounds for post‐transduction treatment studies (Figure 6). The aggregation mixtures were premixed with 0.2 μL per well TurboFect™ Transfection Reagent (Thermo Fisher Scientific Inc., Cat. # R0533) in 10 μL Opti‐MEM™ (Thermo Fisher Scientific Inc., Cat. #11058021) and added to cells.
For co‐aggregation studies (Figure 5), cells were cultured for 48 h after transduction before processing for imaging. For post‐transduction treatment studies (Figure 6), cells were cultured for 24 h following transduction, then treated with PUR or OLC at concentrations ranging from 0 to 10 μM, and incubated for an additional 24 h.
In both experiments (Figures 5 and 6), cells were fixed after a total of 48 h with 2% paraformaldehyde (Electron Microscopy Services, Cat. #15714‐1 L) for 10 min at room temperature, washed once with 1× PBS, and stained with 10 μM Hoechst‐33342 nuclear dye (Invitrogen, Cat. #H21492) for 10–15 min. To preserve samples for imaging, 1% glycerol in deionized water was added to each well.
Cells were imaged on a Cell Voyager 7000S high‐content imaging system (Yokogawa, Tokyo, Japan) with a 20× objective. CFP/YFP inclusions of seeded tau were detected using a 488 nm laser line (Ex = 460–490 nm, Em = 500–550 nm), and Hoechst‐stained nuclei were detected using a 405 nm laser line (Ex = 360–400 nm, Em = 410–480 nm). At least 10–15 focal areas per well were imaged for each replicate. Image analysis was performed using Signals Image Artist (Revvity) to quantify the number of cells (Hoechst‐stained nuclei) and intracellular CFP/YFP inclusions. Total inclusions per well were normalized to cell confluence and are presented as normalized seeding for graphing.

[2] = R2R3 N279K aggregated with 10 μM compound
[3] = R2R3 P301L aggregated with 10 μM compound
[4] = R2R3 V287I aggregated with 10 μM compound
[5] = R2R3 WT aggregated with 10 μM compound

Structure (SMILES)	aggregation (% of control), AUC of ThT fluorescence (R2R3 (V287I) tau peptide; R2R3 V287I 50 μM, compound 0.1 μM)	ThT-stained aggregates, confocal imaging (R2R3 (V287I) tau peptide)	intracellular seeding (CFP/YFP inclusions) by aggregation products [1, 2]	intracellular seeding (CFP/YFP inclusions) by aggregation products [1, 3]	intracellular seeding (CFP/YFP inclusions) by aggregation products [1, 4]	intracellular seeding (CFP/YFP inclusions) by aggregation products [1, 5]	remaining activity at 0.1 µM (R2R3 (V287I) tau peptide; R2R3 V287I 50 μM, compound 0.1 μM, read-out: aggregation (% of control), AUC of ThT fluorescence)
C/C=C(/C=O)[C@@H](CC=O)CC(=O)OCCc1ccc(O)cc1 [OLC, oleocanthal]	71%	marked reduction in ThT signal	abolished the formation of species capable of inducing intracellular seeding; also recorded: significantly reduced seeding	abolished the formation of species capable of inducing intracellular seeding; also recorded: significantly reduced seeding	abolished the formation of species capable of inducing intracellular seeding; also recorded: near‐complete inhibition of seeding	effectively abolishing intracellular seeding	
O=C1c2ccccc2C(=O)c2c(O)c(O)cc(O)c21 [PUR, purpurin]		marked reduction in ThT signal	abolished the formation of species capable of inducing intracellular seeding; also recorded: significantly reduced seeding	abolished the formation of species capable of inducing intracellular seeding; also recorded: significantly reduced seeding	abolished the formation of species capable of inducing intracellular seeding; also recorded: near‐complete inhibition of seeding	did not affect the seeding competency	44%
